Measurements taken from patent US20060111551A1, “Peptide having HTLV-1-specific CTL-inducing activity” (priority 2003, published 2006).

Key:
[1] = test system: CTL induced from post-HSCT patient R07; details: HLA-A24+ TOK cells pulsed with peptide; effector-to-target ratio 8; 18 hours; FIG. 5
Description: Following 18 hours of incubation, IFN-γ in the supernatant was measured by ELISA assay. Values represent the mean of duplicate assays.
IFN-γ production by the effector cells was measured by ELISA (Human IFN-γ ELISA Kit; Endogen, Woburn, Mass.) following 18 hours of incubation with target cells at various E/T ratios in duplicate.
Subsequently, epitope mapping of these CTL was performed. […] The present inventors stained these cultured PBMCs with the tetramer of HLA-A*2402/Tax301-309.

[2] = test system: CTL line of post-HSCT patient #37; details: LCL-#36 cells pulsed with 10 mM peptide; effector-to-target ratio 10; FIG. 3
Description: Values represent the mean of specific lysis of triplicate assays.
Cytotoxic activities were measured by 6-hour ^51Cr-release assay at various effector-to-target (E/T) cell ratios as described previously (J. Natl. Cancer Inst. 93, 1775-1783, 2001; J. Virol. 76, 7010-7019, 2002). Specific cytotoxicity was calculated as ([experimental ^51Cr release−spontaneous ^51Cr release]/[maximum ^51Cr release−spontaneous ^51Cr release]×100%).

[3] = test system: uncultured PBMC of recipient #37 and donor #36; test: IFN-γ ELISPOT assay of uncultured PBMC; assay type: cell-based, human; details: overnight incubation with 10 μg/ml peptide, mean±SD of triplicate
Description: IFN-γ producing antigen-specific T cells were counted using IFN-γ-specific ELISPOT assays as previously described (J. Immunol. Methods 191, 131-142, 1996; J. Exp. Med. 186, 859-865, 1997). […] After 10-min reaction with BICP/NBT alkaline phosphatase substrate (SIGMA), colored spots on the dried membranes were counted using a KS-ELISPOT microscopy system (Carl Zeiss, Jena, Germany).
It was next investigated whether there are any qualitative or quantitative differences in HTLV-I-specific CTL responses among pre-HSCT #37, post-HSCT #37, and donor #36. To examine HTLV-I-specific CTL precursor cell number without experimental biases by in vitro culture, frozen stored PBMC were immediately subjected to ELISPOT assay for IFN-γ production. The results of CTL precursor in the uncultured PBMC of recipient #37 and donor #36 responding to ILT-#37 or Tax epitope are shown in Table 1. […] Values represent the mean±SD of triplicate assays. Further, the results of ELISPOT assay of IFN-γ are shown by spot forming cells (SFC) per 10^5 PBMC.

SFHSLHLLFEEYTNI [Tax301-315]
reaction with responder cells (IFN-γ production against peptide-pulsed TOK cells) [1]: selectively reacted

MAHFPGFGQSLLFGYPVYVFGDCV [Tax1-24]
killing of peptide-pulsed LCL-#36 cells by CTL line of post-HSCT patient #37 [2]: selectively killed

LLFEEYTNI [Tax307-315, synthetic oligopeptide of HTLV-I Tax]
IFN-γ-producing SFC/10^5 PBMC, Donor #36 ([3]; PBMC of donor #36): 1 ± 0.6 SFC/10^5 PBMC | IFN-γ-producing SFC/10^5 PBMC, Post-HSCT #37 ([3]; PBMC of post-HSCT patient #37): 2 ± 1 SFC/10^5 PBMC | IFN-γ-producing SFC/10^5 PBMC, Pre-HSCT #37 ([3]; PBMC of pre-HSCT patient #37): 18 ± 2 SFC/10^5 PBMC
